Tested on: ligated saphenous vein (LSV)
Assay: In vivo ligated saphenous vein damage: histopathological examination (H&E)
Design: species or system NMRI mice
Conditions: control (non-ligated) mice treated for 7 days; also no signs of tissue inflammation

## CCC(C)(C)C(=O)O[C@H]1C[C@@H](C)C=C2C=C[C@H](C)[C@H](CC[C@@H]3C[C@@H](O)CC(=O)O3)[C@H]21 [Simvastatin]
  changes in the lumen of the vessel: no significant changes

Source: EP3845222A1, “MICROENCAPSULATED FORMULATION COMPRISING DIOSMIN, TROXERUTIN AND COUMARINS, COMPOSITIONS THEREOF AND USE THEREOF FOR THE TREATMENT OF CIRCULATORY DISORDERS” (Pharma Line S.r.l., priority 2019, dated 2021)
